Experimental data from ChEMBL document CHEMBL1201862, “PubChem BioAssay data set” (2004).
Active and inactive are the calls of the source.

biological target: T1, Aurora kinase A (Homo sapiens, UniProt O14965); format: functional;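 also: value from the Navigating the Kinome kinase panel profiling, panel entry STK6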
T1 sequence (O14965 whole entry): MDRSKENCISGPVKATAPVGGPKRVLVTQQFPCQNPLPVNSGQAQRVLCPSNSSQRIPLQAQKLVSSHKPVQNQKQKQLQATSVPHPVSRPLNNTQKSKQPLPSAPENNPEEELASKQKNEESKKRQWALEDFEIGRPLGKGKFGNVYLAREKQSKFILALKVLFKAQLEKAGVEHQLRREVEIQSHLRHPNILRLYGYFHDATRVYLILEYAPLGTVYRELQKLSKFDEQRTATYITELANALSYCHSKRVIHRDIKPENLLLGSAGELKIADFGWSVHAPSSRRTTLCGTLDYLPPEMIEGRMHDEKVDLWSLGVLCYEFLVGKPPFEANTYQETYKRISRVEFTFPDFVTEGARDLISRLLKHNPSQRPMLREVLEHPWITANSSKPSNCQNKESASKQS

| Ki | Structure (SMILES) |
| --- | --- |
| 1.26 µM (active) | CCC1CC(NS(=O)(=O)C2CC2)CC1c1ncc2cnc3[nH]ccc3n12 (stereo not given) |
| > 1.58 µM (inactive) | O=C(Nc1cccc(C(F)(F)F)n1)Nc1ccnc2cc(OC(F)F)ccc12 |
| 10 µM (active) | O=c1[nH]c2cc(Br)cnc2[nH]1 |
| > 1.58 µM (inactive) | O=C(Nc1cccc(C(F)(F)F)n1)Nc1ccnc2cc(Cl)ccc12 |

biological target: Fibroblast growth factor receptor 1 (Homo sapiens, UniProt P11362); format: functional
Sequence (P11362 whole entry): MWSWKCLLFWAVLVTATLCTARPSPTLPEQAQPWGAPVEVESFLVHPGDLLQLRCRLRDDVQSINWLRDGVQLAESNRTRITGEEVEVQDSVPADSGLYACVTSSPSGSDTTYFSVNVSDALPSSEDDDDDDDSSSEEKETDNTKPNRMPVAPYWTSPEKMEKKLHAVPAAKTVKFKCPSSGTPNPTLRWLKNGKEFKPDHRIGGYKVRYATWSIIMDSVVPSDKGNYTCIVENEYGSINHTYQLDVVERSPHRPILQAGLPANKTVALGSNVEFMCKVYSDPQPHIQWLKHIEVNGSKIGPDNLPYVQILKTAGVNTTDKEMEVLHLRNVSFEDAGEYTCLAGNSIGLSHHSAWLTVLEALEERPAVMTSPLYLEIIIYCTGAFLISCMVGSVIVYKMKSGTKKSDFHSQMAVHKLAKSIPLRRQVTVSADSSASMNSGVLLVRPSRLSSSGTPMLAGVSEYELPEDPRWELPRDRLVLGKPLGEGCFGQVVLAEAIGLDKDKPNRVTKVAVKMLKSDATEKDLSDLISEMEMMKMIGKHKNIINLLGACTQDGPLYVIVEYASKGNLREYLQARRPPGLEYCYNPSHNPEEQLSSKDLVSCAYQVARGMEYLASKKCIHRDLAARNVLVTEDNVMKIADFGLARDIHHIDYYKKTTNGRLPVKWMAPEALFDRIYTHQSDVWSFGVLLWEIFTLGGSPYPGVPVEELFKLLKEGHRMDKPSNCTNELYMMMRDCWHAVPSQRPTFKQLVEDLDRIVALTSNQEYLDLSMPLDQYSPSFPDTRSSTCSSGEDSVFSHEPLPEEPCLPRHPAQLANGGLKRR

| Ki | Structure (SMILES) |
| --- | --- |
| 1.26 µM (active) | CCC1CC(NS(=O)(=O)C2CC2)CC1c1ncc2cnc3[nH]ccc3n12 (stereo not given) |
| > 3.98 µM (inactive) | O=C(Nc1cccc(C(F)(F)F)n1)Nc1ccnc2cc(OC(F)F)ccc12 |
| 50.1 µM (active) | O=c1[nH]c2cc(Br)cnc2[nH]1 |
| > 3.98 µM (inactive) | O=C(Nc1cccc(C(F)(F)F)n1)Nc1ccnc2cc(Cl)ccc12 |

biological target: T2, Serine/threonine-protein kinase TAO1 (Homo sapiens, UniProt Q7L7X3); format: functional
T2 sequence (Q7L7X3 whole entry): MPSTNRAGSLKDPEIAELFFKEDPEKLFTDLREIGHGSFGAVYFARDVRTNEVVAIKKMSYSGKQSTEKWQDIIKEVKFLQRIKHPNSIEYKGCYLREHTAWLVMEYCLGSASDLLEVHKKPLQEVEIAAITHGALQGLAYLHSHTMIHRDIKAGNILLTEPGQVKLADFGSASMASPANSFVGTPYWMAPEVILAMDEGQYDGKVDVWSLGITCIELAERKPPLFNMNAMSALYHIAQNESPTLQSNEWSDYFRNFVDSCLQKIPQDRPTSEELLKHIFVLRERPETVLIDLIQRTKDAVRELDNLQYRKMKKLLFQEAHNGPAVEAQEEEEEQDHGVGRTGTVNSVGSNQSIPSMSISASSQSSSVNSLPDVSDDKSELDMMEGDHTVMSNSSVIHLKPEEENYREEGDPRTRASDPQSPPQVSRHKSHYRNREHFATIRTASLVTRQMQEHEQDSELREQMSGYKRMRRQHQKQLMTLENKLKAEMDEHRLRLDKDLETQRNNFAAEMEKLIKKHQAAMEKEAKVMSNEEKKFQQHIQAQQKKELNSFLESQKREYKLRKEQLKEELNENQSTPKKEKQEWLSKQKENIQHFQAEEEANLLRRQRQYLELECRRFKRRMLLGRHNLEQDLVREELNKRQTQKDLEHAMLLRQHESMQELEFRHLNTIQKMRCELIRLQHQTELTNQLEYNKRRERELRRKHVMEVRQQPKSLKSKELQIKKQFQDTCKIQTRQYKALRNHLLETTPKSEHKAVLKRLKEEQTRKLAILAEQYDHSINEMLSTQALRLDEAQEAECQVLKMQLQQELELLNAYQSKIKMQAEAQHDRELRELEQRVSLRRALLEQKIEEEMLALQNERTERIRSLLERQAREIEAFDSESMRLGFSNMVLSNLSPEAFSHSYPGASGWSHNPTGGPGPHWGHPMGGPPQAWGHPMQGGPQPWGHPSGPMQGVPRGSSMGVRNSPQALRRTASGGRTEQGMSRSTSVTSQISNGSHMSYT

| Ki | Structure (SMILES) |
| --- | --- |
| > 2 µM (inactive) | CCC1CC(NS(=O)(=O)C2CC2)CC1c1ncc2cnc3[nH]ccc3n12 (stereo not given) |
| > 6.31 µM (inactive) | O=C(Nc1cccc(C(F)(F)F)n1)Nc1ccnc2cc(OC(F)F)ccc12 |
| 12.6 µM (active) | O=c1[nH]c2cc(Br)cnc2[nH]1 |
| > 6.31 µM (inactive) | O=C(Nc1cccc(C(F)(F)F)n1)Nc1ccnc2cc(Cl)ccc12 |

biological target: High affinity nerve growth factor receptor (Homo sapiens, UniProt P04629); format: functional;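 also: NTRK1 tested as one member of a kinome-wide profiling panel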
Sequence (P04629 whole entry): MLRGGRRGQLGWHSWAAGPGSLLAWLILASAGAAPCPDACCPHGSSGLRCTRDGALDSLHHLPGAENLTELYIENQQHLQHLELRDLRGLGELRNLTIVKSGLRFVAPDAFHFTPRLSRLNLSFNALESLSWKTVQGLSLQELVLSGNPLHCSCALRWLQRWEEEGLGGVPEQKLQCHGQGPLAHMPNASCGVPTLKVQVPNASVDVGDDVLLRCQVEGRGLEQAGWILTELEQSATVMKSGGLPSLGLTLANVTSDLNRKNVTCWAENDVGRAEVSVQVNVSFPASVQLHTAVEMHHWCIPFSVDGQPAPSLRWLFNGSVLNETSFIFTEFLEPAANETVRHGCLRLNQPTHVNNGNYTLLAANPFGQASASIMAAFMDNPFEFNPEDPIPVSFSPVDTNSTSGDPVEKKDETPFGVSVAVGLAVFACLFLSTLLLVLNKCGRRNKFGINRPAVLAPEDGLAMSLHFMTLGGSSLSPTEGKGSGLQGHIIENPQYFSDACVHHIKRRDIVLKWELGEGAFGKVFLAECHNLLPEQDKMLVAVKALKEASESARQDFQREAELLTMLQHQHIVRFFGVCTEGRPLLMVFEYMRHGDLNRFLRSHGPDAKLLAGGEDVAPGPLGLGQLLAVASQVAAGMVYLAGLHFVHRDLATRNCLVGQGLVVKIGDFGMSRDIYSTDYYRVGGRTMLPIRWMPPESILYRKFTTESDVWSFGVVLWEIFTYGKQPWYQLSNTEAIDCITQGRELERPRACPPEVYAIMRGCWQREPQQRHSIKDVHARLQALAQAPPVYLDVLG

| Ki | Structure (SMILES) |
| --- | --- |
| > 3.16 µM (inactive) | CCC1CC(NS(=O)(=O)C2CC2)CC1c1ncc2cnc3[nH]ccc3n12 (stereo not given) |
| > 3.16 µM (inactive) | O=C(Nc1cccc(C(F)(F)F)n1)Nc1ccnc2cc(OC(F)F)ccc12 |
| 2.51 µM (active) | O=C(Nc1cccc(C(F)(F)F)n1)Nc1ccnc2cc(Cl)ccc12 |

biological target: T3, cAMP-dependent protein kinase catalytic subunit PRKX (Homo sapiens, UniProt P51817); format: functional
T3 sequence (P51817 whole entry): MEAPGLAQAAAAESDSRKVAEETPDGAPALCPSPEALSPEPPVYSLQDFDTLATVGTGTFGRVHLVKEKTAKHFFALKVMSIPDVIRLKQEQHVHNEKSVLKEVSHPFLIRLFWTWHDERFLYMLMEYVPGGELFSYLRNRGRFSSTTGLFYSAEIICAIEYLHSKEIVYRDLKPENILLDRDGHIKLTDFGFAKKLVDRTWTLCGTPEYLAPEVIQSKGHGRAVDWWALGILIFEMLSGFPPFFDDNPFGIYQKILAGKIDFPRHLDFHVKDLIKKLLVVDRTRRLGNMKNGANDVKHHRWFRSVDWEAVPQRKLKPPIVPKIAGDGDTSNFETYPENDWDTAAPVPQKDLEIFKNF

| Ki | Structure (SMILES) |
| --- | --- |
| > 1.26 µM (inactive) | CCC1CC(NS(=O)(=O)C2CC2)CC1c1ncc2cnc3[nH]ccc3n12 (stereo not given) |
| > 3.16 µM (inactive) | O=C(Nc1cccc(C(F)(F)F)n1)Nc1ccnc2cc(OC(F)F)ccc12 |
| 12.6 µM (active) | O=c1[nH]c2cc(Br)cnc2[nH]1 |
| > 3.16 µM (inactive) | O=C(Nc1cccc(C(F)(F)F)n1)Nc1ccnc2cc(Cl)ccc12 |

biological target: Leucine-rich repeat serine/threonine-protein kinase 2 (Homo sapiens, UniProt Q5S007); format: functional;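 also: value from a broad kinome-wide panel profiling study in which LRRK2 was one of the kinases tested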
Sequence (Q5S007 whole entry): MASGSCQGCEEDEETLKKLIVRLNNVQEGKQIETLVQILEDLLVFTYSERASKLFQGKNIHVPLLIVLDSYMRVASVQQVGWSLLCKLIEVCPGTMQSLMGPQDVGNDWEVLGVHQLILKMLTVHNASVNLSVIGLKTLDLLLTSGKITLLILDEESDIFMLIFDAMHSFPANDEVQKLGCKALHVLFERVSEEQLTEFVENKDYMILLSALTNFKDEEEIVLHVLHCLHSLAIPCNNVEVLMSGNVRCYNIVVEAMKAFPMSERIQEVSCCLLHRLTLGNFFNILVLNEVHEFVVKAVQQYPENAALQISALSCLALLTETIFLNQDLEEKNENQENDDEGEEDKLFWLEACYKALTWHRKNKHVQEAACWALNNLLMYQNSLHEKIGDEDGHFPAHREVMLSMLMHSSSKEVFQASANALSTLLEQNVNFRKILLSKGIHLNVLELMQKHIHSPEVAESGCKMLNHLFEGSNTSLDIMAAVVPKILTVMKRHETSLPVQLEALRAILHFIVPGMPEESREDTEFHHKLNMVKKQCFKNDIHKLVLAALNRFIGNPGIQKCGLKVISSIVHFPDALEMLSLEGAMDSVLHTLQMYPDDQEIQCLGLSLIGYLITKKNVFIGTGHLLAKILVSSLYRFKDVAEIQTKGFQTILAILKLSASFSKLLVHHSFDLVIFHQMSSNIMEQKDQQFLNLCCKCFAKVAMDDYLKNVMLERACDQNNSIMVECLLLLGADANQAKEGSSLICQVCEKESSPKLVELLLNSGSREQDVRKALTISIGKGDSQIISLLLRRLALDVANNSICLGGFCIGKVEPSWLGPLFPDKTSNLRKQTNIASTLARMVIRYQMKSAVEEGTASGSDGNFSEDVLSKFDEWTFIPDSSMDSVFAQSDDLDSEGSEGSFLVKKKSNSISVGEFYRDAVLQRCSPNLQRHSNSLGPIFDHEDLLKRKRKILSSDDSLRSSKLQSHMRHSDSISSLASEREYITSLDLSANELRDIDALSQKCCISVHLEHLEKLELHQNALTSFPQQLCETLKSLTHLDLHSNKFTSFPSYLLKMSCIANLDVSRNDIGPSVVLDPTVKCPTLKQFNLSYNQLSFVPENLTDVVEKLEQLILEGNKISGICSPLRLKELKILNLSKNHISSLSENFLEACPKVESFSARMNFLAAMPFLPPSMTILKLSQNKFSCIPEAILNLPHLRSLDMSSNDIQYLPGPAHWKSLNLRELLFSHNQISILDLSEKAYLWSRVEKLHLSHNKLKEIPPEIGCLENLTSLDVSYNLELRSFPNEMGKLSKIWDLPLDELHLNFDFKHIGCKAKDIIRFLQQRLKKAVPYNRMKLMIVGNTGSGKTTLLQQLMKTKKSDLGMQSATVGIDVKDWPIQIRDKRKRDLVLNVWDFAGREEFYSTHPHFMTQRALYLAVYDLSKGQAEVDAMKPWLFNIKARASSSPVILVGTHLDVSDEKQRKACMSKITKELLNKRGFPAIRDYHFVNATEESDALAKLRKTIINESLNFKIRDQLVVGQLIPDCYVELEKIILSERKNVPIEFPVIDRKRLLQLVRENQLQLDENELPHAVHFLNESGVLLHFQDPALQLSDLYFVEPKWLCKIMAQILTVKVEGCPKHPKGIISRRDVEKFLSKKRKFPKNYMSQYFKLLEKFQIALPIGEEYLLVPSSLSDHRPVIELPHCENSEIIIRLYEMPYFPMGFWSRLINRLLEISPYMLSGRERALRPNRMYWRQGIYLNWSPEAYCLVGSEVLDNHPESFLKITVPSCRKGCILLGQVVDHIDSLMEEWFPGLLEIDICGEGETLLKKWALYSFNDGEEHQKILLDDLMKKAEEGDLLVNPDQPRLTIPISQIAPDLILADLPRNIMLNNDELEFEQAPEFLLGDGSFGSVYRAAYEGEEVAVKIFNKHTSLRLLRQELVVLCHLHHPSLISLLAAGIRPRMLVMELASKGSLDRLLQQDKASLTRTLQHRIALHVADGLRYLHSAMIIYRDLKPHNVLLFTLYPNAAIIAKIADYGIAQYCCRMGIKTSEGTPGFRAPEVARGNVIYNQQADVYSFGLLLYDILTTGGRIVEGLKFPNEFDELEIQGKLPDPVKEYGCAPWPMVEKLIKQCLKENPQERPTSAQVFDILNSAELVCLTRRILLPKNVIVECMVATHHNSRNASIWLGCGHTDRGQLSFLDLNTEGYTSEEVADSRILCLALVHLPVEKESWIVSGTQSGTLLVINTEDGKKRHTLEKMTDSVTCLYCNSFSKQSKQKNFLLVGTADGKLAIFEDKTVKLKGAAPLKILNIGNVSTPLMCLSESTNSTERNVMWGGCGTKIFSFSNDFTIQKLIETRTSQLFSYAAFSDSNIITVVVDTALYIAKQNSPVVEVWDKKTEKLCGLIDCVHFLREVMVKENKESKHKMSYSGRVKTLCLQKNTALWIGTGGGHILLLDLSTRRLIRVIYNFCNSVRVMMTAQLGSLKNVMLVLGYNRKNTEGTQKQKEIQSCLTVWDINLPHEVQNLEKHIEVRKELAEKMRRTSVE

| Ki | Structure (SMILES) |
| --- | --- |
| 0.1 µM (active) | CCC1CC(NS(=O)(=O)C2CC2)CC1c1ncc2cnc3[nH]ccc3n12 (stereo not given) |
| > 2.51 µM (inactive) | O=C(Nc1cccc(C(F)(F)F)n1)Nc1ccnc2cc(OC(F)F)ccc12 |
| 3.98 µM (active) | O=c1[nH]c2cc(Br)cnc2[nH]1 |
| > 2.51 µM (inactive) | O=C(Nc1cccc(C(F)(F)F)n1)Nc1ccnc2cc(Cl)ccc12 |

biological target: Glycogen synthase kinase-3 beta (Homo sapiens, UniProt P49841); format: functional;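 also: value comes from a broad kinome profiling panel, with GSK3B as the panel member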
Sequence (P49841 whole entry): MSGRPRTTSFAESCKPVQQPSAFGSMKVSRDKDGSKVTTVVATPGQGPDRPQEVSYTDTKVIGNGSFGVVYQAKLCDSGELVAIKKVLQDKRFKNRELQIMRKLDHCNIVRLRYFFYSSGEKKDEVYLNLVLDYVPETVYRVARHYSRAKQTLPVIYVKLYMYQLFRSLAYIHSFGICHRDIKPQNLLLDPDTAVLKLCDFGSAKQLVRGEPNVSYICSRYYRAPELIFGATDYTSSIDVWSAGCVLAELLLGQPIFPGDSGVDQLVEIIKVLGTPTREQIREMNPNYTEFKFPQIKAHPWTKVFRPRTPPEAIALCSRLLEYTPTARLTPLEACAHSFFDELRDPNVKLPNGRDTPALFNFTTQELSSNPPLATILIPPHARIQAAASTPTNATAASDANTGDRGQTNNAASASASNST

| Ki | Structure (SMILES) |
| --- | --- |
| > 3.98 µM (inactive) | CCC1CC(NS(=O)(=O)C2CC2)CC1c1ncc2cnc3[nH]ccc3n12 (stereo not given) |
| 63.1 µM (active) | O=c1[nH]c2cc(Br)cnc2[nH]1 |
| 0.00794 µM (active) | O=C(Nc1cccc(C(F)(F)F)n1)Nc1ccnc2cc(Cl)ccc12 |

biological target: T4, Inhibitor of nuclear factor kappa-B kinase subunit epsilon (Homo sapiens, UniProt Q14164); assay: Navigating the Kinome. Panel member name: IKBKE; format: functional
T4 sequence (Q14164 whole entry): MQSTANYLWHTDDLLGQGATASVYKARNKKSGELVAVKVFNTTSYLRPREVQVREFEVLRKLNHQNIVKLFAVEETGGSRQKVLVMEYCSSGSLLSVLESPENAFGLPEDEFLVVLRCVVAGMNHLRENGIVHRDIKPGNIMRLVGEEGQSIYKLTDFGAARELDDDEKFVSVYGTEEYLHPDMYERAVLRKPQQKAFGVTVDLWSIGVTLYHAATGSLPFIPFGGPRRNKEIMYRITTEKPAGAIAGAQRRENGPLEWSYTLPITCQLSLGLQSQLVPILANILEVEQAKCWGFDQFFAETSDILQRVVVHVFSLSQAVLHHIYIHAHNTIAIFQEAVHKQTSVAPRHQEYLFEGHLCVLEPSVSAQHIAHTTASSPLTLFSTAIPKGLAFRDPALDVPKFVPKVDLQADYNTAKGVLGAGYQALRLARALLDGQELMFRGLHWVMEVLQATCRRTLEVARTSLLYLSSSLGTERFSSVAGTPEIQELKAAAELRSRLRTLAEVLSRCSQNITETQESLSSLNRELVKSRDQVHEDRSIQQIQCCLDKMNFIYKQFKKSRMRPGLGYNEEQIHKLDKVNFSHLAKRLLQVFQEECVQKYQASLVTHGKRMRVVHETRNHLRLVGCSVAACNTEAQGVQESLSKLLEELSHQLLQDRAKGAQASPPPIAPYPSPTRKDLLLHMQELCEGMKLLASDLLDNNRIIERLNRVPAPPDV

| Ki | Structure (SMILES) |
| --- | --- |
| > 3.16 µM (inactive) | CCC1CC(NS(=O)(=O)C2CC2)CC1c1ncc2cnc3[nH]ccc3n12 (stereo not given) |
| > 3.16 µM (inactive) | O=C(Nc1cccc(C(F)(F)F)n1)Nc1ccnc2cc(OC(F)F)ccc12 |
| 39.8 µM (active) | O=c1[nH]c2cc(Br)cnc2[nH]1 |
| > 3.16 µM (inactive) | O=C(Nc1cccc(C(F)(F)F)n1)Nc1ccnc2cc(Cl)ccc12 |
